Test results reported in BigSolDB 2.1.

Cl.NCCCC[C@H](N)C(=O)O
Conditions	solubility (mole fraction)
in DMSO, 282.8 K	0.0179
in DMSO, 288.2 K	0.0243
in DMSO, 293 K	0.0301
in DMSO, 298.1 K	0.0357
in DMSO, 303.3 K	0.0391
in DMSO, 308.4 K	0.0432
in DMSO, 312.8 K	0.0469
in DMSO, 318.1 K	0.0516
in DMSO, 323.2 K	0.0529
in DMSO, 328.3 K	0.0561
in ethanol, 288.1 K	6.71e-06
in ethanol, 292.8 K	8.31e-06
in ethanol, 298.1 K	9.91e-06
in ethanol, 303 K	1.09e-05
in ethanol, 308.1 K	1.22e-05
in ethanol, 312.7 K	1.41e-05
in ethanol, 318.2 K	1.63e-05
in ethanol, 322.9 K	1.76e-05
in ethanol, 328.3 K	1.92e-05
in ethylene glycol, 282.9 K	0.00769
in ethylene glycol, 288 K	0.0108
in ethylene glycol, 293.1 K	0.0146
in ethylene glycol, 298.2 K	0.0183
in ethylene glycol, 303.2 K	0.022
in ethylene glycol, 307.9 K	0.0259
in ethylene glycol, 312.9 K	0.0298
in ethylene glycol, 318 K	0.0326
in ethylene glycol, 322.7 K	0.0354
in ethylene glycol, 328.1 K	0.0377
in methanol, 297.9 K	0.000283
in methanol, 303 K	0.000368
in methanol, 308.1 K	0.000433
in methanol, 312.8 K	0.000501
in methanol, 318.1 K	0.00055
in methanol, 323 K	0.000592
in methanol, 327.8 K	0.000637
in water, 283 K	0.0497
in water, 288.1 K	0.0543
in water, 292.9 K	0.0587
in water, 298.1 K	0.0618
in water, 302.8 K	0.0627
in water, 308 K	0.0707
in water, 313.3 K	0.0833
in water, 317.9 K	0.0925
in water, 323 K	0.102
in water, 328.2 K	0.111
